# Assay results taken from patent US20130158075A1, “HETEROCYCLIC COMPOUNDS AS DGAT1 INHIBITORS” (PIRAMAL ENTERPRISES LIMITED, priority 2010, published 2013).
# Structures can show the parent of a compound that is named as a salt.
# Target: T1, hDGAT1 (Homo sapiens, UniProt O75907)
# T1 construct: made in house; host or cells: Sf9 insect cells (baculovirus); microsomal fraction
# T1 sequence (O75907 1-488): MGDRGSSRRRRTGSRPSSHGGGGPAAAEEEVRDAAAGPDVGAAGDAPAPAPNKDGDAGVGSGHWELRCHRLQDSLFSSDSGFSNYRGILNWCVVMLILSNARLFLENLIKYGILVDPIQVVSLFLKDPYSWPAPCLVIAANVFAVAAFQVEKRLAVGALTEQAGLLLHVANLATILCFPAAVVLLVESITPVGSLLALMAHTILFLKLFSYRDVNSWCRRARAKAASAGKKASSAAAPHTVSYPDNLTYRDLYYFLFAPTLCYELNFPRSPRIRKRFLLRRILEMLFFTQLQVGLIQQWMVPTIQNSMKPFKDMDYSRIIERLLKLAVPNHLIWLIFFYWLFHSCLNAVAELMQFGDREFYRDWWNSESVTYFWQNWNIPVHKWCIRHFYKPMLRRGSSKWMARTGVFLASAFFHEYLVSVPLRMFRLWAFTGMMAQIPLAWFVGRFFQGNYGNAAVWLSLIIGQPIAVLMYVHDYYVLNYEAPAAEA
# Assay: In-vitro DGAT1 assay with hDGAT1 microsomes from Sf9 cells (14C oleoyl CoA, scintillation counting)
# Type: biochemical
# Conditions: at 1 μM
# Protocol: Sf9 cells were grown in T25 flasks containing Graces's Insect media with 10% FBS with antibiotic (100 units/mL penicillin, 100 μg/mL streptomycin sulphate, 0.25 μg/mL Amptotericin B as Fungizone) grown in a 27° C. incubator.
# hDGAT10RF expression clone (RZPDo839C09146 in pDEST vector) was obtained from RZPD, German Science Center for Genomes research, Germany. hDGAT1 bacmid DNA was obtained by transformation of the hDGAT1 expression clone into DH10Bac E. coli competent cells. Approximately 1 μg of hDGAT1 bacmid DNA was infected into Sf9 cells with Cellfectin (Invitrogen) reagent. Following infection, Sf9 cells were incubated at 27° C. for 30 min. Five hours after infection, the media was replaced with growth media containing antibiotics (100 units/mL penicillin, 100 μg/mL streptomycin sulphate, 0.25 μg/mL Amptotericin B as Fungizone) and incubated at 27° C. for 72 h. The supernatant containing the virus was centrifuged at 1500×g for 5 min, passed through 0.22 μm filter, and subsequently stored at 4° C. The virus was further amplified three more times by re-infection of Sf9 cells and the viral titer was determined by plaque assay.
# Sf9 cells were seeded in spinner flasks on day 0 at a cell density of 1×10^6 and infected on day 1 with hDGAT1 baculovirus at a multiplicity of infection (MOI) of 5 and a cell density of 2×10^6. On day 3 (or 66-72 h), cells were harvested and centrifuged at 2500×g for 10 min. Pellet was resuspended in lysis buffer (100 mM sucrose, 50 mM KCl, 40 mM KH2PO4, 30 mM EDTA, pH 7.2) and passed through 21-gauge needle approximately 10 times. The mixture was centrifuged at 12,000 rpm in a Sigma 12158-H rotor at 4° C. for 30 min. The supernatant was subjected to centrifugation at 35,000 rpm in a Beckman Ti-45 rotor at 4° C. for 1 h. The resultant pellet containing the microsomes wasere resuspended overnight in 1 mL of lysis buffer and total protein concentration was estimated using Bradford Reagent. Microsomes were aliquoted and stored at −80° C.
# Frozen aliquots of hDGAT1 containing microsomes were thawed (5-10 mg/mL total protein) on ice and diluted to a working stock of 1 mg/mL with DGAT Assay Buffer (DAB). The DGAT reaction assay was performed by following the procedure described in U.S. Pat. No. 6,607,893 with some modifications that are described below.
# 1 mL stock solution of DGAT1 substrate mixture contains 5.6 μL of ^14C oleoyl CoA (16.8 nCi) and […] of 1,2-dioleoyl-sn-glycerol (1228.5 μM) 1,2-dioleoyl-sn-glycerol stock (19.5 mM) was prepared by dissolving 25 mg of 1,2-dioleoyl-sn-glycerol (Sigma, US) in 2060 μL of acetone.
# The assay was performed in duplicates in a reaction volume of 100 μL.
# The reaction was started by the addition of 2.5 μL of 1 mg/mL of microsomes (iv) to the mixture of (i), (ii) and (iii), and incubated at 37° C. for 10 min. The reaction was stopped by the addition of 300 μL of Alkaline Ethanol Stop Solution Mix [AESSM; 12.5% of 100% non-denatured ethanol, 10% deionized water, 2.5% 1N NaOH, 75% stop solution (78.4% isopropanol, 19.6% n-heptane, 2% deionized water)] followed by addition of 600 μL of n-heptane. The mixture was vortexed and the triglycerides formed were extracted into the organic heptane phase. 250 μL of the heptane phase was added into 4 mL scintillation cocktail (66.72% toluene, 33.3% TritonX-100, 0.5% PPO, 0.02% POPOP) and counted on a liquid scintillation counter for 1 min. Data was collected and plotted as a function of concentration in nM versus percentage inhibition of hDGAT1 by the compounds of present invention.
row,Compound,Percentage inhibition of hDGAT1
1,"O=C(Nc1ccc(-c2noc([C@H]3CC[C@H](C(=O)O)CC3)n2)cc1)Nc1ccc(F)cc1F [Example 221, (1r,4r)-4-(3-(4-(3-(2,4-Difluorophenyl)ureido)phenyl)-1,2,4-oxadiazol-5-yl)cyclohexanecarboxylic acid]",+ (20-50% Inhibition)
2,"O=C(O)CCCc1nnc(-c2ccc(NC(=O)c3ccc(-c4ccccc4)cc3)cc2)s1 [Example 290, 4-(5-(4-([1,1′-Biphenyl]-4-ylcarboxamido)phenyl)-1,3,4-thiadiazol-2-yl)butanoic acid]",+ (20-50% Inhibition)

# Next, values leading:
row,Percentage inhibition of hDGAT1,Compound
1,++ (>50 % Inhibition),"O=C(Nc1ccc(-c2cnc(CCNS(=O)(=O)C(F)(F)F)s2)cc1)NC1CCCCC1 [Example 528, N-(2-(5-(4-(3-Cyclohexylureido)phenyl)thiazol-2-yl)ethyl)-1,1,1-trifluoro methanesulfonamide]"
2,+ (20-50% Inhibition),"4-(3-(4-(3-(2,4-Difluorophenyl)ureido)phenyl)-1,2,4-oxadiazol-5-yl)butanoic acid [Example 332]"

# Same assay, conditions: read-out: Percentage inhibition of hDGAT1
row,Compound,inhibition at 1 µM [%]
1,"CC(C)(Cc1ncc(-c2ccc(NC(=O)NC3CCCCC3)cc2)s1)C(=O)O [Example 38, 3-(5-(4-(3-Cyclohexylureido)phenyl)thiazol-2-yl)-2,2-dimethylpropanoic acid]",20 to 50
2,"O=C(Nc1ccc(-c2cnc(C3CCC(C(=O)O)CC3)s2)cc1)Nc1ccc(Cl)cc1Oc1ccccc1 (stereo not drawn) [Example 190, 4-(5-(4-(3-(4-Chloro-2-phenoxyphenyl)ureido)phenyl)thiazol-2-yl)cyclohexane carboxylic acid]",> 50
3,"O=C(Nc1ccc(-c2cnc(C3CCC(C(=O)O)CC3)s2)cc1)Nc1ccccc1Cl (stereo not drawn) [Example 188, 4-(5-(4-(3-(2-Chlorophenyl)ureido)phenyl)thiazol-2-yl)cyclohexane carboxylic acid]",> 50
4,"CC(C)(CCc1ncc(-c2ccc(NC(=O)Nc3cc(F)c(F)cc3F)cc2)s1)C(=O)O [Example 237, 2,2-Dimethyl-4-(5-(4-(3-(2,4,5-trifluorophenyl)ureido)phenyl)thiazol-2-yl)butanoic acid]",> 50
5,"O=C(O)CCCc1nnc(-c2ccc(NC(=O)Nc3ccc(Cl)cc3Oc3ccccc3)cc2)s1 [Example 286, 4-(5-(4-(3-(4-Chloro-2-phenoxyphenyl)ureido)phenyl)-1,3,4-thiadiazol-2-yl)butanoic acid]",> 50
6,"O=C(Nc1ccc(-c2cnc(C3CCC(C(=O)O)CC3)s2)cc1)Nc1c(F)cccc1F (stereo not drawn) [Example 184, 4-(5-(4-(3-(2,6-Difluorophenyl)ureido)phenyl)thiazol-2-yl)cyclohexane carboxylic acid]",> 50
7,"O=C(Nc1ccc(-c2cnc(C3CCC(C(=O)O)CC3)s2)cc1)Nc1ccc(C(F)(F)F)cc1Cl (stereo not drawn) [Example 148, 4-(5-(4-(3-(2-Chloro-4-(trifluoromethyl)phenyl)ureido)phenyl)thiazol-2-yl)cyclohexanecarboxylic acid]",> 50
8,"CC(C)(C)c1ccc(C(=O)Nc2ccc(-c3cnc(C4CCC(C(=O)O)CC4)s3)cc2)cc1 (stereo not drawn) [Example 194, 4-(5-(4-(4-t-Butylbenzamido)phenyl)thiazol-2-yl)cyclohexanecarboxylic acid]",> 50
9,"CC(C)(CCc1ncc(-c2ccc(NC(=O)Nc3ccccc3Cl)cc2)s1)C(=O)O [Example 90, 4-(5-(4-(3-(2-Chlorophenyl)ureido)phenyl)thiazol-2-yl)-2,2-dimethylbutanoic acid]",> 50
10,"CC(C)(CCc1ncc(-c2ccc(NC(=O)Nc3cc(F)c(F)c(F)c3)cc2)s1)C(=O)O [Example 255, 2,2-dimethyl-4-(5-(4-(3-(3,4,5-trifluorophenyl)ureido)phenyl)thiazol-2-yl)butanoic acid]",> 50

# Second part, the compound after the results:
row,inhibition at 1 µM [%],Compound
1,20 to 50,"Cc1nnc(CC2CCC(c3ncc(-c4ccc(NC(=O)Nc5ccccc5Cl)cc4)s3)CC2)o1 (stereo not drawn) [Example 380, 1-(2-Chlorophenyl)-3-(4-(2-(4-((5-methyl-1,3,4-oxadiazol-2-yl)methyl)cyclohexyl)thiazol-5-yl)phenyl)urea]"
2,> 50,"Cc1nnc(CC2CCC(c3ncc(-c4ccc(NC(=O)Nc5c(F)cc(F)cc5F)cc4)s3)CC2)o1 (stereo not drawn) [Example 383, 1-(4-(2-(4-((5-Methyl-1,3,4-oxadiazol-2-yl)methyl)cyclohexyl)thiazol-5-yl)phenyl)-3-(2,4,6-trifluorophenyl)urea]"
3,> 50,"O=C(O)CN1CCC(c2ncc(-c3ccc(NC(=O)Nc4ccccc4F)cc3)s2)CC1 [Example 431, 2-(4-(5-(4-(3-(2-Fluorophenyl)ureido)phenyl)thiazol-2-yl)piperidin-1-yl)acetic acid]"
4,> 50,"O=C(Nc1ccccc1)Nc1ccc(-c2cnc(CNS(=O)(=O)C(F)(F)F)s2)cc1 [Example 550, 1,1,1-Trifluoro-N-((5-(4-(3-phenylureido)phenyl)thiazol-2-yl)methyl)methane sulfonamide]"
5,20 to 50,"CS(=O)(=O)N1CCC(c2ncc(-c3ccc(NC(=O)Nc4c(F)cc(F)cc4F)cc3)s2)CC1 [Example 493, 1-(4-(2-(1-(Methylsulfonyl)piperidin-4-yl)thiazol-5-yl)phenyl)-3-(2,4,6-trifluorophenyl)urea]"
6,20 to 50,"O=C(Nc1ccc(-c2cnc(C3CCN(S(=O)(=O)C(F)(F)F)CC3)s2)cc1)Nc1ccc(F)cc1F [Example 485, 1-(2,4-Difluorophenyl)-3-(4-(2-(1-((trifluoromethyl)sulfonyl)piperidin-4-yl)thiazol-5-yl)phenyl)urea]"
7,> 50,"CC(C)(N)C1CCC(c2ncc(-c3ccc(NC(=O)Nc4cc(F)c(F)cc4F)cc3)s2)CC1 (stereo not drawn) [Example 587, 1-(4-(2-(4-(2-Aminopropan-2-yl)cyclohexyl)thiazol-5-yl)phenyl)-3-(2,4,5-trifluorophenyl)urea]"
8,20 to 50,"O=C(Nc1ccc(-c2cnc(C3CCNCC3)s2)cc1)Nc1ccc(F)cc1F [Example 478, 1-(2,4-Difluorophenyl)-3-(4-(2-(piperidin-4-yl)thiazol-5-yl)phenyl)urea hydrochloride]"
9,20 to 50,"O=C(O)CN1CCC(c2ncc(-c3ccc(NC(=O)Nc4ccc(F)c(F)c4F)cc3)s2)CC1 [Example 439, 2-(4-(5-(4-(3-(2,3,4-Trifluorophenyl)ureido)phenyl)thiazol-2-yl)piperidin-1-yl)acetic acid]"
10,20 to 50,"O=C(Nc1ccc(-c2cnc(C3CCNCC3)s2)cc1)Nc1ccccc1Cl [Example 474, 1-(2-Chlorophenyl)-3-(4-(2-(piperidin-4-yl)thiazol-5-yl)phenyl)urea hydrochloride]"
